By IC50 is commonly meant the point on the concentration scale where inhibition reaches its midpoint. Usually viability, T/C stands for the result in the treated group divided by that in the control group, in per cent.

Where “and” joins values, the source holds several entries; their conditions need not be identical. Identical values can stand only once. Some results are limits rather than exact numbers.

The test system of this assay is 317291-083-R-J1-PDC complex spheroids, viability. In words: Anticancer human tumor 317291-083-R-J1-PDC patient-derived soft tissue sarcoma cell line growth inhibition [GQUAD]. Particulars: for viability, T/C: stronger effect = lower value. An excerpt: DNA G-quadruplex Stabilizer Agents in Combinations in Complex Spheroids
A high-throughput screen of multi-cell type tumor spheroids was designed to identify active combinations of DNA G-quadruplex stabilizer agents and targeted small molecules. Complex spheroids include a stromal component modeled by human endothelial cells (HUVEC) and fibroblasts modeled by human mesenchymal stem cells (MSCs). The concentration ranges selected for each drug and investigational agent were based upon clinically achievable concentrations if the clinical Cmax of the agent was known.
Compounds. The drugs and investigational agents: pidnarulex (CX-5461; NSC782164), APTO-253 (NSC789042), BRACO-19 (NSC847499), peposertib (NSC802822), ceralasertib (NSC780249), elimusertib (NSC800525), camonsertib (NSC841442), AZD-1390 (NSC803789), olaparib (NSC753686), talazoparib (NSC767125), ART-558 (NSC835418), sotorasib (NSC818433), MRTX-1133 (NSC836407), SN-38 (NSC673596), topotecan (NSC609699), etoposide (NSC141540), doxorubicin (NSC123127), gemcitabine (NSC613327), 5-fluorouracil (NSC19893), paclitaxel (NSC125973), vemurafenib (NSC761431), panobinostat (NSC761190), R-306465 (JNJ-16241199; NSC773264), adavosertib (NSC754352), TP-3654 (NSC805149), carboplatin (NSC241240), KSQ-4279 (NSC840948), and staurosporine (NSC755774) were obtained from the National Cancer Institute (NCI) Developmental Therapeutics Program Chemical Repository (34). The FDA-approved anticancer drug set is available from the NCI Developmental Therapeutics Program. […] The stock solutions were prepared in dimethyl sulfoxide (DMSO, Sigma-Aldrich, St. Louis, MO, cat. D2650) at 800-fold the tested concentration and stored at -70 degrees C prior to their use. All drugs and investigational agents were tested over a range starting from a high concentration at or near the clinical Cmax and decreasing in half-log increments. If the clinical Cmax for an agent had not been determined, the highest concentration tested was 10 microM.
2.3 Cell Culture. All cells were maintained in an incubator at 37 degrees C and 5% CO2 with 95% humidity. The PDC lines were cultured according to standard operating procedures established by the NCI PDMR. All PDCs were thawed and cultured in Matrigel-coated flasks prepared with a working solution of 1X Ham's F-12 nutrient mix, without supplementation (Invitrogen, cat. 11765054), 100 U/mL penicillin-streptomycin (Invitrogen, cat. 15140122), and 2.5% Matrigel (Corning Inc., cat. 354248) for the first three passages. The 857933-349-R-J2-PDC line was cultured in 6C/Colon 1B media, which includes advanced DMEM/F-12 (Thermo Fisher Scientific, cat. 12634028), 10 mM HEPES (Thermo Fisher Scientific, cat. 15630080), 1X GlutaMAX supplement (Thermo Fisher Scientific, cat. 35050061), 0.1 mg/mL primocin (InvivoGen, cat. ant-pm-2), 10% defined fetal bovine serum, heat inactivated (HyClone Laboratories Inc., cat. SH30070.03HI), 50% L-WRN conditioned media (ATCC, cat. CRL-3276), 1.25 mM N-Acetyl-L-cysteine (Sigma-Aldrich, cat. A9165), 10 mM nicotinamide (Sigma-Aldrich, cat. N0636), 1X B-27 supplement (Thermo Fisher Scientific, cat. 17504044), 1X N-2 supplement (Thermo Fisher Scientific, cat. 17502048), 10 microM Y-27632 dihydrochloride (Tocris Bioscience, cat. 1254), and 50 ng/mL human EGF recombinant protein (Thermo Fisher Scientific, cat. PHG0311). The 485176-168-R4-J1-PDC line was cultured in Panc media, which includes all 6C/Colon 1B media components plus 100 ng/mL human FGF-10 (Thermo Fisher Scientific, cat. 100-26), 500 nM SB-431542 (Selleckchem, cat. S1067), and gastrin (Tocris, cat. 3006).
[…]

Where [1] appears, read: curve of first compound, second compound 0.0316 µM.
Where [2] appears, read: curve of first compound, second compound 0.1 µM.
Where [3] appears, read: curve of first compound, second compound 0.316 µM.
[4] abbreviates: curve of first compound, second compound 1 µM.
The mark [5] stands for this setting: curve of first compound, second compound 3.16 µM.
Setting [6] is: curve of first compound, second compound 10 µM.
The mark [7] stands for this setting: second compound 0.0316 µM, first compound 0.0316 µM.
Setting [8] is: second compound 0.0316 µM, first compound 0.316 µM.
[9] abbreviates: second compound 0.1 µM, first compound 0.0316 µM.
Setting [10] is: second compound 0.1 µM, first compound 0.316 µM.
[11] abbreviates: second compound 0.316 µM, first compound 0.0316 µM.
The mark [12] stands for this setting: second compound 0.316 µM, first compound 0.316 µM.
The mark [13] stands for this setting: second compound 1 µM, first compound 0.0316 µM.
Where [14] appears, read: second compound 1 µM, first compound 0.316 µM.
Setting [15] is: second compound 3.16 µM, first compound 0.0316 µM.
Setting [16] is: second compound 3.16 µM, first compound 0.316 µM.
The mark [17] stands for this setting: second compound 10 µM, first compound 0.0316 µM.
Setting [18] is: second compound 10 µM, first compound 0.316 µM.
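Note: spheroids exposed to compounds for one week before readout.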
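Throughout, for viability, T/C: percent viability relative to DMSO vehicle wells taken as 100%.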

As to `Cn1ncnc1[C@H]1c2n[nH]c(=O)c3cc(F)cc(c23)N[C@@H]1c1ccc(F)cc1` + Cc1[nH]c2ccc(F)cc2c1-c1nc2c3cccnc3c3ncccc3c2[nH]1, the IC50 runs as follows: under setting [1], > 316 nM; under setting [2], > 316 nM; under setting [3], > 316 nM; under setting [4], > 316 nM; under setting [5], > 316 nM; under setting [6], > 316 nM. The viability, T/C runs as follows: (second compound 0.0316 µM, first compound 0.000999 µM) 104%; (second compound 0.0316 µM, first compound 0.00316 µM) 101%; (second compound 0.0316 µM, first compound 0.00999 µM) 120%; under setting [7], 87.8%; (second compound 0.0316 µM, first compound 0.0999 µM) 92%; under setting [8], 77.2%. The viability, T/C (second compound 0.1 µM, first compound 0.000999 µM) was 119%; the viability, T/C (second compound 0.1 µM, first compound 0.00316 µM) is 99.2%; the viability, T/C (second compound 0.1 µM, first compound 0.00999 µM) was 113%; the viability, T/C under setting [9] is 112%; the viability, T/C (second compound 0.1 µM, first compound 0.0999 µM) was 91.6%; the viability, T/C under setting [10] was 64.7%. Further, the viability, T/C (second compound 0.316 µM, first compound 0.000999 µM) is 112%; the viability, T/C (second compound 0.316 µM, first compound 0.00316 µM) is 114%; the viability, T/C (second compound 0.316 µM, first compound 0.00999 µM) was 97.7%; the viability, T/C under setting [11] was 94.3%; the viability, T/C (second compound 0.316 µM, first compound 0.0999 µM) was 108%; the viability, T/C under setting [12] is 91.1%. Besides, the viability, T/C was 120% (second compound 1 µM, first compound 0.000999 µM); 113% (second compound 1 µM, first compound 0.00316 µM); 89.5% (second compound 1 µM, first compound 0.00999 µM); 89.3% under setting [13]; 91.1% (second compound 1 µM, first compound 0.0999 µM); 72.3% under setting [14]. For the same molecule, the viability, T/C is, setting by setting: (second compound 3.16 µM, first compound 0.000999 µM) 106%; (second compound 3.16 µM, first compound 0.00316 µM) 99.7%; (second compound 3.16 µM, first compound 0.00999 µM) 96.7%; under setting [15], 73.4%; (second compound 3.16 µM, first compound 0.0999 µM) 75.3%; under setting [16], 57.1%. Moreover, the viability, T/C was 96.1% (second compound 10 µM, first compound 0.000999 µM); 100% (second compound 10 µM, first compound 0.00316 µM); 102% (second compound 10 µM, first compound 0.00999 µM); 75.4% under setting [17]; 86% (second compound 10 µM, first compound 0.0999 µM); 68.7% under setting [18].
For `CC(C)(O)C1CCC(Nc2ccc3ncc(-c4cccc(C(F)(F)F)c4)n3n2)CC1` (stereo not given) + Cc1[nH]c2ccc(F)cc2c1-c1nc2c3cccnc3c3ncccc3c2[nH]1, the IC50 by setting is: under setting [1], 647 nM; under setting [2], 576 nM; under setting [3], 421 nM; under setting [4], 114 nM; under setting [5], < 31.6 nM; under setting [6], < 31.6 nM. Further, the viability, T/C is, setting by setting: under setting [7], 102%; (second compound 0.0316 µM, first compound 0.1 µM) 102%; under setting [8], 85.9%; (second compound 0.0316 µM, first compound 1 µM) 28.2%; (second compound 0.0316 µM, first compound 3.16 µM) 0.62%; (second compound 0.0316 µM, first compound 10 µM) 0.37%. The viability, T/C runs as follows: under setting [9], 91%; (second compound 0.1 µM, first compound 0.1 µM) 85%; under setting [10], 77.1%; (second compound 0.1 µM, first compound 1 µM) 25.4%; (second compound 0.1 µM, first compound 3.16 µM) 0.16%; (second compound 0.1 µM, first compound 10 µM) 0.74%. Besides, the viability, T/C reads like this: under setting [11], 61.8%; (second compound 0.316 µM, first compound 0.1 µM) 70.9%; under setting [12], 61.6%; (second compound 0.316 µM, first compound 1 µM) 14.3%; (second compound 0.316 µM, first compound 3.16 µM) 0.22%; (second compound 0.316 µM, first compound 10 µM) 0.17%. Further, the viability, T/C under setting [13] was 58.1%; the viability, T/C (second compound 1 µM, first compound 0.1 µM) was 43%; the viability, T/C under setting [14] was 45.1%; the viability, T/C (second compound 1 µM, first compound 1 µM) was 8.74%; the viability, T/C (second compound 1 µM, first compound 3.16 µM) is 0.32%; the viability, T/C (second compound 1 µM, first compound 10 µM) is 0.16%. Also, the viability, T/C was 29.5% under setting [15]; 19.8% (second compound 3.16 µM, first compound 0.1 µM); 24.1% under setting [16]; 7.5% (second compound 3.16 µM, first compound 1 µM); 0.94% (second compound 3.16 µM, first compound 3.16 µM); 0.2% (second compound 3.16 µM, first compound 10 µM). Further, the viability, T/C runs as follows: under setting [17], 41%; (second compound 10 µM, first compound 0.1 µM) 38.6%; under setting [18], 44.5%; (second compound 10 µM, first compound 1 µM) 14.2%; (second compound 10 µM, first compound 3.16 µM) 0.55%; (second compound 10 µM, first compound 10 µM) 0.82%.
Turning to `C=CC(=O)N1CCN(c2nc(=O)n(-c3c(C)ccnc3C(C)C)c3nc(-c4c(O)cccc4F)c(F)cc23)C(C)C1` (stereo not given), the viability, T/C (compound 0.0316 µM) is 108% (2×) and 110%; the viability, T/C (compound 0.1 µM) was 105% and 102% and 99.9%; the viability, T/C (compound 0.316 µM) was 118% and 108% and 110%; the viability, T/C (compound 1 µM) was 101% (2×) and 102%; the viability, T/C (compound 3.16 µM) was 99.1% and 101% and 97.7%; the viability, T/C (compound 10 µM) is 69.1% and 68% and 75.9%. Further, the half-inhibitory concentration (IC50) (curve of compound) was > 10000 nM.
In the case of `CC1COCCN1c1cc(-c2ccnn2C)c2ccnc(-c3ccn[nH]3)c2n1` (stereo not given), the viability, T/C is, setting by setting: (compound 0.0316 µM) 93.3% and 80.4% and 110%; (compound 0.1 µM) 40.7% and 25.8% and 39.3%; (compound 0.316 µM) 20.1% and 22% and 14.4%; (compound 1 µM) 20.6% and 15.7% and 21.6%; (compound 3.16 µM) 15.3% and 14.9% and 14.8%; (compound 10 µM) 12.3% and 12.6% and 11.2%. In addition, for the setting “curve of compound”, the half-maximal inhibitory concentration (IC50) was 81.4 nM and 61 nM and 84.2 nM.
For the molecule `CCCS(=O)(=O)Nc1ccc(F)c(C(=O)c2c[nH]c3ncc(-c4ccc(Cl)cc4)cc23)c1F`, the viability, T/C is 104% and 114% and 118% (compound 0.0316 µM); 97.3% and 110% and 95% (compound 0.1 µM); 102% and 113% and 121% (compound 0.316 µM); 86.6% and 83.1% and 87% (compound 1 µM); 46.4% and 66% and 62.4% (compound 3.16 µM); 12.2% and 13.6% and 14.5% (compound 10 µM). The IC50 (curve of compound) is 2840 nM and 4300 nM and 4140 nM.
